{"source": "patent US11096885B2", "about": "“Composition for enhancing skin elasticity or improving skin wrinkles comprising ginseng cell lysate” (AMOREPACIFIC CORPORATION, priority 2018, dated 2021)", "system": "MMP-1", "assay": "MMP-1 ELISA assay: inhibition of MMP-1 production in UVB-irradiated human skin fibroblasts", "format": "cell-based", "settings": "HS68 cells; for MMP-1 (%): untreated control = 100, UVB group = 463.00", "procedure": "The MMP-1 ELISA assay was performed to confirm the effect of the composition of Example 1 and Comparative Example 1 on the inhibition of MMP-1 production, which is a skin tissue degrading enzyme, in UVB-irradiated human skin fibroblasts.\nSpecifically, HS68 cells, which are human skin fibroblasts, were seeded in a 48-well plate at a concentration of 2×10^4 cells/well, and then cultured in a DMEM medium (WelGene) containing 10% fetal bovine serum (FBS, WelGene) and 1% penicillin/streptomycin under a condition of 37° C. and 5% CO2. Then, the medium was removed and washed with DPBS (Dulbecco's Phosphate-Buffered Saline). Then, the cells from Example 1 and Comparative Example 1 diluted by concentration (125 ppm, 250 ppm, 500 ppm) in a DMEM medium containing no fetal bovine serum (FBS) and pretreated for 6 hours. Then, the medium was removed and was filled with 100 μl of DPBS, and then was irradiated at UVB 30 mJ/cm^2. The cells from Example 1 and Comparative Example 1 were diluted by concentration (250 ppm, 500 ppm) in a DMEM medium containing no fetal bovine serum (FBS), treated and cultured for 48 hours. After collecting the medium of the cultured cells, the amount of MMP-1 secretion was measured using a human MMP-1 ELISA kit (R&D Systems), and the absorbance was measured at 450 nm using an ELISA reader (Infinite M200Pro, Tecan). The cells attached to the bottom of the plate were washed with DPBS, lysed with 1N NaOH, and the amount of protein was measured using a BCA assay (Pierce® BCA protein assay kit, Thermo Scientific). The amount of MMP-1 secretion per certain protein was corrected and expressed as a percentage (%). As a positive control group, 1 μM and 10 μM of retinoic acid (RA) were used. Statistical significance between samples was used by the student's t-test and was analyzed to be statistically significant when the p-value was 0.05 or less (* P<0.05, ** p<0.01, *** p<0.001)."}
{"compound": "CC1=C(/C=C/C(C)=C/C=C/C(C)=C/C(=O)O)C(C)(C)CCC1", "note": "[RA, retinoic acid]", "values": [{"measurement": "reduction of MMP-1 secretion as compared to the UVB irradiation group", "setting": "UVB 30 mJ/cm^2, 1 μM", "result": 111.06, "unit": "%"}, {"measurement": "MMP-1 (%)", "setting": "UVB 30 mJ/cm^2, 1 μM", "result": "351.95 ± 22.95", "unit": "%"}, {"measurement": "reduction of MMP-1 secretion as compared to the UVB irradiation group", "setting": "UVB 30 mJ/cm^2, 10 μM", "result": 239.71, "unit": "%"}, {"measurement": "MMP-1 (%)", "setting": "UVB 30 mJ/cm^2, 10 μM", "result": "223.29 ± 114.85", "unit": "%"}]}
